In assay [1] the target is T1, Serotonin 5-HT1A (Homo sapiens, UniProt P08908).
T1 sequence (P08908 1-422): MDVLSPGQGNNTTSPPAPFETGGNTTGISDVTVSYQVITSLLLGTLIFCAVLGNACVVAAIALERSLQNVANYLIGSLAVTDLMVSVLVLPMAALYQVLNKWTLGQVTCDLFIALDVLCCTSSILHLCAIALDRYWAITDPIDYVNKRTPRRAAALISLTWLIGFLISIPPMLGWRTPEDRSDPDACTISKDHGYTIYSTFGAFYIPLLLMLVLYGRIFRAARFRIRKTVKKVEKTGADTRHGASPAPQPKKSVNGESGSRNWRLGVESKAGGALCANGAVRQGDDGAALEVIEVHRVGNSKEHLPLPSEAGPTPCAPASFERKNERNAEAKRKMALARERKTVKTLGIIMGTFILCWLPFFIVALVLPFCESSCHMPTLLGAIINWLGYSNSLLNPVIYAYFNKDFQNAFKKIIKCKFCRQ
Briefly: PDSP binding screen.

For assay [2], the target named is Opioid MOR (Homo sapiens, UniProt P35372). As to the kind of experiment: PDSP binding screen.
Assay [3] deals with Adrenergic beta2 (Homo sapiens, UniProt P07550). As to the kind of experiment: PDSP binding screen. To be noted: read-out: Ki (nM) or % inhibition at 10 µM: beta2.
Assay [4] concerns the target T2, Adrenergic alpha2C (Homo sapiens, UniProt P18825).
T2 sequence (P18825 1-462): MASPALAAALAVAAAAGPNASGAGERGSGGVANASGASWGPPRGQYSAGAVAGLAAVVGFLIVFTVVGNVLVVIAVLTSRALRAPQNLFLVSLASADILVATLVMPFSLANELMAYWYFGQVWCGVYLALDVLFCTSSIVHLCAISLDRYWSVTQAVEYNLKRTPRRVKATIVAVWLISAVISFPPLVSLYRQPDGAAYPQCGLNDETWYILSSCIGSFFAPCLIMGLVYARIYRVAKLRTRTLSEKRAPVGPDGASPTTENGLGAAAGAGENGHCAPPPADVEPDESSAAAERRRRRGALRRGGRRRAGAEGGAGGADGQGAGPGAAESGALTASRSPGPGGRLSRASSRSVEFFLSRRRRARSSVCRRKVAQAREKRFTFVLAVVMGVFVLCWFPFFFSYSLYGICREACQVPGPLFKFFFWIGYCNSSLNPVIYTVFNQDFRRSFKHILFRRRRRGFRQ
As to the kind of experiment: PDSP binding screen.

The target in assay [5] is Histamine H2 (Homo sapiens, UniProt P25021). Briefly: PDSP binding screen. To be noted: read-out: Ki (nM) or % inhibition at 10 µM: H2.
Assay [6] addresses Serotonin 5-HT2B (Homo sapiens, UniProt P41595). Briefly: PDSP binding screen.
The target of assay [7] is Norepinephrine transporter (NET) (Homo sapiens, UniProt P23975). As to the kind of experiment: PDSP binding screen.
Assay [8] concerns the target Serotonin 5-HT7A (Homo sapiens, UniProt P34969). Briefly: PDSP binding screen. To be noted: read-out: Ki (nM) or % inhibition at 10 µM: 5-HT7A.
For assay [9], the target named is Serotonin 5-HT2A (Homo sapiens, UniProt P28223). Briefly: PDSP binding screen.
In assay [10] the target is Dopamine D5 (Homo sapiens, UniProt P21918). As to the kind of experiment: PDSP binding screen. The note with it: read-out: Ki (nM) or % inhibition at 10 µM: D5.
Assay [11] has as its target Adrenergic beta1 (Homo sapiens, UniProt P08588). Briefly: PDSP binding screen.
Assay [12] deals with Opioid KOR (Homo sapiens, UniProt P41145). Briefly: PDSP binding screen.
Assay [13] has as its target T3, Adrenergic alpha1D (Homo sapiens, UniProt P25100).
T3 sequence (P25100 1-572): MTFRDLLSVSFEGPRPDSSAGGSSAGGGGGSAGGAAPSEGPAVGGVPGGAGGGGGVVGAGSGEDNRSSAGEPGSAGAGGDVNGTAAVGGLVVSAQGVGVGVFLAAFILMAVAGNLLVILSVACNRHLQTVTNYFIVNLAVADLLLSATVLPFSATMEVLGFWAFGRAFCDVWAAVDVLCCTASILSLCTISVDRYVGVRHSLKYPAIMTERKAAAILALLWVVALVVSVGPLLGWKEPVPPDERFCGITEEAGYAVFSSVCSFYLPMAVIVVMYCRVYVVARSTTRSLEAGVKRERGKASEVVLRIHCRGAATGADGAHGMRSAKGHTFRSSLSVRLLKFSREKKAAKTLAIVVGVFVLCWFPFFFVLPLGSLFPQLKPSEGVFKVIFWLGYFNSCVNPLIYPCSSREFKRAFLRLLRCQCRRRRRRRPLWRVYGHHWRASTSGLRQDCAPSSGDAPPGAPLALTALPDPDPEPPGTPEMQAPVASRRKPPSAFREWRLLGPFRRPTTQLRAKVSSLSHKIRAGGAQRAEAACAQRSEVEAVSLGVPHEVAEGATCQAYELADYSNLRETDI
As to the kind of experiment: PDSP binding screen.

In assay [14] the target is T4, human D2 receptors (Homo sapiens, UniProt P14416).
T4 construct: expressed in transfected cells; host or cells: HEK293
As to the kind of experiment: Radioligand binding assay with [125I]IABN, D2 receptor. To be noted: [125I]IABN, D2 receptors expressed in HEK cells; mean ± SEM, three experiments; HCl salts; read-out: Ki ± SEM (nM) D2. As for the experimental part:
Two different assays were used to evaluate the properties of the analogs described above. The receptor binding affinity was measured by radioligand binding assays using [^125I]IABN with D2 or D3 receptors highly expressed HEK293 cells. The functional activity of the analogs was determined using a β-arrestin recruitment assay. […] The results of the antagonist mode assay are reported as IC50 values.
Ki values for D2 and D3 receptors were measured using [^125I]IABN in human D2 and D3 receptors expressed in HEK cells, respectively. A filtration binding assay was used to characterize membrane-associated receptor binding properties. The details for the procedures were described in the literature.

A value given as a limit tells only on which side of the number the result lay.

Adrenergic beta2, sequence (P07550 whole entry): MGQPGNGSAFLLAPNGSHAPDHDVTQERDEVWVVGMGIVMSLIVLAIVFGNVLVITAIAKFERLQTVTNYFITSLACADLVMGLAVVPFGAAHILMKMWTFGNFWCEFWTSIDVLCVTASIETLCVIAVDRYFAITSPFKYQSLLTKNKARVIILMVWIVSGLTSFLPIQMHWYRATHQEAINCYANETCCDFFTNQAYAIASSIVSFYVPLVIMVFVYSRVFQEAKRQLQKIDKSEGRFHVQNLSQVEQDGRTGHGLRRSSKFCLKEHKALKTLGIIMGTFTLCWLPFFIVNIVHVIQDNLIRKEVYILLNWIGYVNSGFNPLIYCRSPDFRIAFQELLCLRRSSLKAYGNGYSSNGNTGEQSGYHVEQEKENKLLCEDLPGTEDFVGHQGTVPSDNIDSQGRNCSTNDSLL
Serotonin 5-HT2A, sequence (P28223 whole entry): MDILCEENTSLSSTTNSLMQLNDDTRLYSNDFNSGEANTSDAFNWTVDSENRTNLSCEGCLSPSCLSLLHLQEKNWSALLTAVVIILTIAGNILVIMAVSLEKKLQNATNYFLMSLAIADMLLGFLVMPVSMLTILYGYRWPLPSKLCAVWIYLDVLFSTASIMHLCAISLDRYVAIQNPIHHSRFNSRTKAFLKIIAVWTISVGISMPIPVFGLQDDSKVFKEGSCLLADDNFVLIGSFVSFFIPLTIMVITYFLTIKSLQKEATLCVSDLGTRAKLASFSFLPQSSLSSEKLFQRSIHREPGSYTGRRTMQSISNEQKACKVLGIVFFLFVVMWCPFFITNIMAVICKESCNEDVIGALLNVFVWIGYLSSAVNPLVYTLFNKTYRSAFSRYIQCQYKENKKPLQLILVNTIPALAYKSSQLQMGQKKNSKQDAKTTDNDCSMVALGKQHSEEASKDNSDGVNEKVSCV
Histamine H2, sequence (P25021 whole entry): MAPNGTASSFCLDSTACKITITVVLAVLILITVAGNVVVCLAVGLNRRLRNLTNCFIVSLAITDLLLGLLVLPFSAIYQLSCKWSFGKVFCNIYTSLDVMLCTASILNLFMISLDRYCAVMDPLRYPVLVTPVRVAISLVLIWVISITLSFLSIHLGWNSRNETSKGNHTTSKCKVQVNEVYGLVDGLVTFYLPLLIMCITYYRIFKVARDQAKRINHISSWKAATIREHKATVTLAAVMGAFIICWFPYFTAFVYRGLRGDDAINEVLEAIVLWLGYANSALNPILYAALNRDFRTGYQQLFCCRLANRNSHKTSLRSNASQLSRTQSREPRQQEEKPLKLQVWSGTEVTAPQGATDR
Dopamine D5, sequence (P21918 whole entry): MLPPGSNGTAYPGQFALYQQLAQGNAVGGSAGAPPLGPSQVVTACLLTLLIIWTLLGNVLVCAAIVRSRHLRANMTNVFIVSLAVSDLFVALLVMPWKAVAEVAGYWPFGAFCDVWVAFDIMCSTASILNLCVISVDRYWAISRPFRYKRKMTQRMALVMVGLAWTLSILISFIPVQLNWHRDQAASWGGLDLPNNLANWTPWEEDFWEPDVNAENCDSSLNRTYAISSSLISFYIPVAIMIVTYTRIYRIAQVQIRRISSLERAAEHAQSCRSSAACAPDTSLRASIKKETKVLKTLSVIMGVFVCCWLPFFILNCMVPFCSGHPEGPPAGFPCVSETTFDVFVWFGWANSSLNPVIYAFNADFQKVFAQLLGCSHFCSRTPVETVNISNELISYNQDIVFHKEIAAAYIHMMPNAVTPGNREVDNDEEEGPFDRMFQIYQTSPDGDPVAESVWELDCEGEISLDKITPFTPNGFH
T4 sequence (P14416 whole entry): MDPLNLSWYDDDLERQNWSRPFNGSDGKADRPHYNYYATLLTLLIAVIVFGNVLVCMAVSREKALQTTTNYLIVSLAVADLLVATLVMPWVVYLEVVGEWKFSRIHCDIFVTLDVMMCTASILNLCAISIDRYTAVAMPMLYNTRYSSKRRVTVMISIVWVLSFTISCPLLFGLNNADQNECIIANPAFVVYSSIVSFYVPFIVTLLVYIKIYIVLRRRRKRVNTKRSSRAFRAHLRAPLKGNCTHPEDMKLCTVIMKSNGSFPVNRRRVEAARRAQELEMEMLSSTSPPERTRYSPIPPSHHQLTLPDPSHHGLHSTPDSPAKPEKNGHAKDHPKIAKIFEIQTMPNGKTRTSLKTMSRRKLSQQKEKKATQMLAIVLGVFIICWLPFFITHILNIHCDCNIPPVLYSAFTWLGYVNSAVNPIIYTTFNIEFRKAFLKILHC
Opioid KOR, sequence (P41145 whole entry): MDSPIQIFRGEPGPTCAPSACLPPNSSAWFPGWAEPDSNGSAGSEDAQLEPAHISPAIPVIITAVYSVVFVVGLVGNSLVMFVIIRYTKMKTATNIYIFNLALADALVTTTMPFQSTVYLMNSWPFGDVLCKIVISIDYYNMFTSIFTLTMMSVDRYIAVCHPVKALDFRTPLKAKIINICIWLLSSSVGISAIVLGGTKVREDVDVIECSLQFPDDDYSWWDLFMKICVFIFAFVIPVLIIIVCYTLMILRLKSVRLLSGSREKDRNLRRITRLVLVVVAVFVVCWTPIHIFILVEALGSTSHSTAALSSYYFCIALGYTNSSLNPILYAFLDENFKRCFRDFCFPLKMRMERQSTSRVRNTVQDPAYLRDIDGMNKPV
Opioid MOR, sequence (P35372 whole entry): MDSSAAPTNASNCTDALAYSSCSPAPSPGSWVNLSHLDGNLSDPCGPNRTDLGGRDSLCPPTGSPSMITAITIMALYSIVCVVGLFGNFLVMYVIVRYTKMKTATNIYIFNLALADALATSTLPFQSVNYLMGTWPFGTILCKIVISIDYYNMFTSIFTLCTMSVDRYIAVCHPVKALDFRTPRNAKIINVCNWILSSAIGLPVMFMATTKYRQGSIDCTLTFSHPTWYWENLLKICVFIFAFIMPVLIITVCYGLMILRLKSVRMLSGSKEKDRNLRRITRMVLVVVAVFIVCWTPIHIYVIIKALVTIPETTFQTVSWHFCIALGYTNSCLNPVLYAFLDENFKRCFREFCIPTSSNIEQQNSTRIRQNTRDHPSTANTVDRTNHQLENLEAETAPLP
Norepinephrine transporter (NET), sequence (P23975 whole entry): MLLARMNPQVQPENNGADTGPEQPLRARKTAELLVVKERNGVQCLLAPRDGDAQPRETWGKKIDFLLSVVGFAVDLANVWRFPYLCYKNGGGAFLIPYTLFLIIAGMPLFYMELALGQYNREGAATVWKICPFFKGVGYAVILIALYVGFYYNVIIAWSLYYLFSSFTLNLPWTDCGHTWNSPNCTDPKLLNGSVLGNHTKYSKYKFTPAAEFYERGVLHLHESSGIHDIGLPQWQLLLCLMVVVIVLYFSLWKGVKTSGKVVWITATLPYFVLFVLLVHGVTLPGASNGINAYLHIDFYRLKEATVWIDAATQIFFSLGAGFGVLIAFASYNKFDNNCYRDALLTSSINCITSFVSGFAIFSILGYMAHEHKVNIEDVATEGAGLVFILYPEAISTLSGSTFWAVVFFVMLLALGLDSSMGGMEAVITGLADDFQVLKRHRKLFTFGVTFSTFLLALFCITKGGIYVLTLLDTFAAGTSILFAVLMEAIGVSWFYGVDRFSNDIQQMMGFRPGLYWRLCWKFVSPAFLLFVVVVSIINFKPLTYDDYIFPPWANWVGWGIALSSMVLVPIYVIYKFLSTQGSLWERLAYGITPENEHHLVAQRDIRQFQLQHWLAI
Serotonin 5-HT2B, sequence (P41595 whole entry): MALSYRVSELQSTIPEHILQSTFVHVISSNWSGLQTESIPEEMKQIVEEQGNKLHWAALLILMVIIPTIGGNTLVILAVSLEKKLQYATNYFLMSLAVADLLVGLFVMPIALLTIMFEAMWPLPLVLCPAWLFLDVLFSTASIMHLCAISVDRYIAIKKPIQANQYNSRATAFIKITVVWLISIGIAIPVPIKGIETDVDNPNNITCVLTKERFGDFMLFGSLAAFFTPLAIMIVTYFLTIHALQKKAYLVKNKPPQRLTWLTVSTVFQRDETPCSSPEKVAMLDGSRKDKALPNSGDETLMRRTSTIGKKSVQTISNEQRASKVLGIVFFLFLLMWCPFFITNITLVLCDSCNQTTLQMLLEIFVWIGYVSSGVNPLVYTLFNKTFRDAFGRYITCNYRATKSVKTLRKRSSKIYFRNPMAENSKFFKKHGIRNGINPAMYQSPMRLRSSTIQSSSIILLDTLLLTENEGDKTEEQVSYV
Adrenergic beta1, sequence (P08588 whole entry): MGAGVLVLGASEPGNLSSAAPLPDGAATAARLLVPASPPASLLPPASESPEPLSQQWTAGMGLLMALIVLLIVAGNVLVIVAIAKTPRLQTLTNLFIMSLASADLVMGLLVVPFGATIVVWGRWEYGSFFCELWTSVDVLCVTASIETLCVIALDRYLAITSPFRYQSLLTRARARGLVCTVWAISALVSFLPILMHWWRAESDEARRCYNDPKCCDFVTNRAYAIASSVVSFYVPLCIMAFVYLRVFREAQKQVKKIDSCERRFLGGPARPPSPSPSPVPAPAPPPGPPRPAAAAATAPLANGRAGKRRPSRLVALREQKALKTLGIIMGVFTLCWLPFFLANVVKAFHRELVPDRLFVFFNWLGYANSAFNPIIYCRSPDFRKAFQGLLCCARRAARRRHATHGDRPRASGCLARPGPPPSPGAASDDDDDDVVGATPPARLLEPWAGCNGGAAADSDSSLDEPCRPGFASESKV
Serotonin 5-HT7A, sequence (P34969 1-445 isoform P34969-2): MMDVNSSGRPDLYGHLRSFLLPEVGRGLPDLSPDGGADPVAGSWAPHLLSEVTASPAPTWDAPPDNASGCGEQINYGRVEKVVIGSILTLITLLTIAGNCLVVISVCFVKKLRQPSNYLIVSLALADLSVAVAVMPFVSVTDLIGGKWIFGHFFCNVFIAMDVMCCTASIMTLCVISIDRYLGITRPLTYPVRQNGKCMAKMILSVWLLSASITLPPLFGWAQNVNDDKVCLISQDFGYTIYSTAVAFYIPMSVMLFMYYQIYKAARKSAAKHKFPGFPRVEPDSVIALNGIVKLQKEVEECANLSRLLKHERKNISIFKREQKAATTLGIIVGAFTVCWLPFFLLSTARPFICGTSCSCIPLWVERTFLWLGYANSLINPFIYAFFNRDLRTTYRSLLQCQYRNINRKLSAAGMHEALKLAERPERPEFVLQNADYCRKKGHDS

For orientation: Ki means a measure of affinity in units of concentration, obtained from inhibition or displacement. For orientation: inhibition means how much of the control response was suppressed. Regarding `CCN(CCCNC(=O)c1cc2ccccc2[nH]1)CCNC(=O)c1cc(Br)cc(OC)c1OC` [21d, N-(3-((2-(5-Bromo-2,3-dimethoxybenzamido)ethyl)(ethyl)amino)propyl)-1H-indole-2-carboxamide], the inhibitory constant (Ki) in assay [1] was 692 nM; in assay [2] it was 2410 nM; in assay [4], 532 nM; in assay [6] it was 181 nM; in assay [7], 842 nM; in [9], 844 nM. In addition, the Ki came out at 2330 nM in [12], 7310 nM in assay [13] and 148 ± 9 nM in [14]. Also, the inhibition at 10 µM in [3], in assay [5], in [8], in assay [10] and in [11] (read-out: Ki (nM) or % inhibition at 10 µM: beta1) was under 50% each time.
Turning to `CCN(CCCNC(=O)c1cn2ccccc2n1)CCNC(=O)c1cc(Br)cc(OC)c1OC` [21e, N-(3-((2-(5-Bromo-2,3-dimethoxybenzamido)ethyl)(ethyl)amino)propyl)imidazo[1,2-a]pyridine-2-carboxamide], the inhibitory constant (Ki) is 575 nM in [1]; 1760 nM in assay [4]; 443 nM in [6]; 1330 nM in [9]; 6520 nM in [11]; 142 ± 16 nM in assay [14]. The inhibition at 10 µM in assay [2] (read-out: Ki (nM) or % inhibition at 10 µM: MOR), in [3], in assay [5], in assay [7] (read-out: Ki (nM) or % inhibition at 10 µM: Norepinephrine transporter (NET)), in [8] and in assay [10] was under 50% each time. The inhibition at 10 µM in assay [12] (read-out: Ki (nM) or % inhibition at 10 µM: KOR) and in assay [13] (read-out: Ki (nM) or % inhibition at 10 µM: alpha1D) was under 50% in each case.

The values are drawn from article PMC9820167, “Design and Synthesis of Conformationally Flexible Scaffold as Bitopic Ligands for Potent D3-Selective Antagonists” (International Journal of Molecular Sciences, 2022).
